Key:
[1] = target: Endothelin receptor type B (Homo sapiens) (UniProt P24530); assay: Inhibition of human ETB receptor at 3 uM by radioligand binding assay
[2] = target: Beta-2 adrenergic receptor (Homo sapiens) (UniProt P07550); assay: Inhibition of human beta2 adrenergic receptor at 3 uM by radioligand binding assay
[3] = target: Adenosine receptor A1 (Homo sapiens) (UniProt P30542); assay: Inhibition of human adenosine A1 receptor at 3 uM by radioligand binding assay
Rattus norvegicus [4] = species on record: Rattus norvegicus; assay: Inhibition of rat N-type calcium channel at 3 uM by radioligand binding assay
[5] = target: Gamma-aminobutyric acid type B receptor subunit 1 (Homo sapiens) (UniProt Q9UBS5); assay: Inhibition of human GABAB1A receptor at 3 uM by radioligand binding assay
Rattus norvegicus [6] = species on record: Rattus norvegicus; assay: Inhibition of rat thyroid hormone receptor at 3 uM by radioligand binding assay
Rattus norvegicus [7] = species on record: Rattus norvegicus; assay: Inhibition of rat GABAB type receptor at 3 uM by radioligand binding assay
[8] = target: Phosphodiesterase 4 (Homo sapiens) (UniProt P27815+Q08499+Q07343+Q08493); assay: Inhibition of human PDE4 at 3 uM by radioligand binding assay; assay type: protein assay
[9] = target: T1, Muscarinic acetylcholine receptor M2 (Homo sapiens) (UniProt P08172); assay: Intrinsic activity at muscarinic M2 receptor (unknown origin) at 10 uM by calcium mobilization assay; assay type: functional
T1 sequence (whole entry): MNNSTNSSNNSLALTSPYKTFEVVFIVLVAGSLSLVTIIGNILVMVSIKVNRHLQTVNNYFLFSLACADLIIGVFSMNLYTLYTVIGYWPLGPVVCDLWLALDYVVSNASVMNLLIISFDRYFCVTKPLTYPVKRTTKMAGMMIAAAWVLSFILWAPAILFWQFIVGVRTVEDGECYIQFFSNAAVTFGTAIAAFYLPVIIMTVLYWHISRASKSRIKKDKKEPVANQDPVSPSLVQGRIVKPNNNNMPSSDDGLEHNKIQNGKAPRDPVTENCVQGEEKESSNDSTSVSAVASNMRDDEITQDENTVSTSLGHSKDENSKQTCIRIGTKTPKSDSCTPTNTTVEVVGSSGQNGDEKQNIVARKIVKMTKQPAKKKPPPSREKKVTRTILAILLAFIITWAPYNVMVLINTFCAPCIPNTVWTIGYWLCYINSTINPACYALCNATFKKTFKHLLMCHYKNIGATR

[10] = target: Kappa-type opioid receptor (Homo sapiens) (UniProt P41145); assay: Inhibition of human kappa opioid receptor at 3 uM by radioligand binding assay
[11] = Oral bioavailability in rat at 2.5 mg/kg; assay type: ADME, organism-based; conditions: in vivo
[12] = target: T2, Muscarinic acetylcholine receptor M5 (Homo sapiens) (UniProt P08912); assay: Agonist activity at muscarinic M5 receptor (unknown origin) at 10 uM by calcium mobilization assay; assay type: functional
T2 sequence (whole entry): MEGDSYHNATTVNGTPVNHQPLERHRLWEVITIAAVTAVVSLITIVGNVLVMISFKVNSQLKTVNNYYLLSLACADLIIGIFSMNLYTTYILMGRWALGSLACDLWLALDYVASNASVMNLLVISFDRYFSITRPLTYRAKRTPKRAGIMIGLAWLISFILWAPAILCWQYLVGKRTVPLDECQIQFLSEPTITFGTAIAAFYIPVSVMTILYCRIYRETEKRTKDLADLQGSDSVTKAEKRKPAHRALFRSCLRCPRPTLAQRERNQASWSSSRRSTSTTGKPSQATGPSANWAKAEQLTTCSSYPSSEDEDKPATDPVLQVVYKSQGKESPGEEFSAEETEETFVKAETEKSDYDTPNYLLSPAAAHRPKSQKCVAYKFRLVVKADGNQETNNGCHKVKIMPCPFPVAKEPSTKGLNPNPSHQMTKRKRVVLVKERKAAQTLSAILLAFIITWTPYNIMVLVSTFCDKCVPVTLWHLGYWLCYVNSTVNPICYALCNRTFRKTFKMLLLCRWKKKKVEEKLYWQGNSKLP

[13] = target: Alpha-1D adrenergic receptor (Homo sapiens) (UniProt P25100); assay: Inhibition of human alpha1D adrenergic receptor at 3 uM by radioligand binding assay
[14] = target: T1, Muscarinic acetylcholine receptor M2 (Homo sapiens); assay: Agonist activity at muscarinic M2 receptor (unknown origin) at 0.3 uM by calcium mobilization assay; assay type: functional
[15] = Clearance in rat at 0.25 mg/kg, iv and 2.5 mg/kg, po; assay type: ADME, organism-based; conditions: in vivo
[16] = target: Cannabinoid receptor 1 (Homo sapiens) (UniProt P21554); assay: Inhibition of human CB1 receptor at 3 uM by radioligand binding assay
[17] = target: Sodium-dependent serotonin transporter (Homo sapiens) (UniProt P31645); assay: Inhibition of human SERT at 3 uM by radioligand binding assay
[18] = Blood brain barrier penetration in rat at 0.25 mg/kg, iv and 2.5 mg/kg, po; assay type: ADME, organism-based
[19] = target: Muscarinic acetylcholine receptor M4 (Homo sapiens, UniProt P08173); assay: Agonist activity at muscarinic M4 receptor (unknown origin) by calcium mobilization assay; assay type: functional
[20] = Cmax in rat at 0.25 mg/kg, iv and 2.5 mg/kg, po; assay type: ADME, organism-based; conditions: in vivo
Oryctolagus cuniculus = species on record: Oryctolagus cuniculus; assay: Inhibition of rabbit purinergic P2X receptor at 3 uM by radioligand binding assay
[21] = Volume of distribution at steady state in rat at 0.25 mg/kg, iv and 2.5 mg/kg, po; assay type: ADME, organism-based; conditions: in vivo, read-out: Vdss
[22] = target: Histamine H1 receptor (Homo sapiens) (UniProt P35367); assay: Inhibition of human histamine H1 receptor at 3 uM by radioligand binding assay
[23] = target: Sodium-dependent dopamine transporter (Homo sapiens) (UniProt Q01959); assay: Inhibition of human DAT at 3 uM by radioligand binding assay
[24] = target: D(4) dopamine receptor (Homo sapiens) (UniProt P21917); assay: Inhibition of human dopamine D4.2 receptor at 3 uM by radioligand binding assay
[25] = Half life in monkey at 0.25 mg/kg, iv and 2.5 mg/kg, po; assay type: ADME, organism-based, Macaca mulatta; conditions: rhesus monkey, in vivo
[26] = Oral bioavailability in monkey at 2.5 mg/kg; assay type: ADME, organism-based, Macaca mulatta; conditions: rhesus monkey, in vivo
[27] = target: Alpha-2A adrenergic receptor (Homo sapiens) (UniProt P08913); assay: Inhibition of human alpha2A adrenergic receptor at 3 uM by radioligand binding assay
[28] = Oral bioavailability in dog at 1 mg/kg; assay type: ADME, organism-based, Canis lupus familiaris; conditions: in vivo

Chain of D(4) dopamine receptor (Homo sapiens) (P21917 whole entry): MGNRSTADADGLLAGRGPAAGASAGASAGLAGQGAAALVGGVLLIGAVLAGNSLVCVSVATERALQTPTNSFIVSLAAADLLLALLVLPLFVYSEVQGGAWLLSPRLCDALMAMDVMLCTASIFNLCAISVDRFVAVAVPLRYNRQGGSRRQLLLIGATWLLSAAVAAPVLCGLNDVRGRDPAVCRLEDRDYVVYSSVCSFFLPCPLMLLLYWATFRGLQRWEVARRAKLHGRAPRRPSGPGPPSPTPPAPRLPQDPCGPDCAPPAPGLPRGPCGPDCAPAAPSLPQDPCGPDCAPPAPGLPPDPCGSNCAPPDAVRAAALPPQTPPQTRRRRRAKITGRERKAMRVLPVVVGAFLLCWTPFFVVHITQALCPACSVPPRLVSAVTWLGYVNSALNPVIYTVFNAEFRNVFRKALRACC
Chain of Cannabinoid receptor 1 (Homo sapiens) (P21554 whole entry): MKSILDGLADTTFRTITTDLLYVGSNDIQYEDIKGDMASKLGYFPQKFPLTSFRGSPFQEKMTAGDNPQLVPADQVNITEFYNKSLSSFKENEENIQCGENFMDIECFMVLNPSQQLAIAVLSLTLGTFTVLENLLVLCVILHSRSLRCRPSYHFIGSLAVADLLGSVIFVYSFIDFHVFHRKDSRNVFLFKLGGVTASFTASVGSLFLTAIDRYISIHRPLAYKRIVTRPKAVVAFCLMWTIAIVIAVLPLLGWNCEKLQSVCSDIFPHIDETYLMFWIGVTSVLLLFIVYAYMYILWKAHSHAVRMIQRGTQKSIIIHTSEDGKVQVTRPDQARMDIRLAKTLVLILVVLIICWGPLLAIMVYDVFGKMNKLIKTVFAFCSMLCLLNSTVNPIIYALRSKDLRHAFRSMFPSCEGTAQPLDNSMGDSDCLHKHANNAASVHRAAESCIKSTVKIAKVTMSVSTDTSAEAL
Chain of Muscarinic acetylcholine receptor M4 (P08173 whole entry): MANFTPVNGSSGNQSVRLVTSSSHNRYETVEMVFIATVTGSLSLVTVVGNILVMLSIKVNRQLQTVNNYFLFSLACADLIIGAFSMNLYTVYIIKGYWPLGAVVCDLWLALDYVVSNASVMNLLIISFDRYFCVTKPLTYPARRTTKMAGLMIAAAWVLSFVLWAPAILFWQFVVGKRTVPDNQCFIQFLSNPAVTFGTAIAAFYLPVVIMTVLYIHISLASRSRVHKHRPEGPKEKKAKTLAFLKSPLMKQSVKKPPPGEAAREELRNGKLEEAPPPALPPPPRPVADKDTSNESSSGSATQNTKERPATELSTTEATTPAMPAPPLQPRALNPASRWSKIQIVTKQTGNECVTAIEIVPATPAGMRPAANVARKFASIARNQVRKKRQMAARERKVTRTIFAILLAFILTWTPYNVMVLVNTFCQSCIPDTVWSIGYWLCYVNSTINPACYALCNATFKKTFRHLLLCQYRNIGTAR
Chain of Beta-2 adrenergic receptor (Homo sapiens) (P07550 whole entry, looked up): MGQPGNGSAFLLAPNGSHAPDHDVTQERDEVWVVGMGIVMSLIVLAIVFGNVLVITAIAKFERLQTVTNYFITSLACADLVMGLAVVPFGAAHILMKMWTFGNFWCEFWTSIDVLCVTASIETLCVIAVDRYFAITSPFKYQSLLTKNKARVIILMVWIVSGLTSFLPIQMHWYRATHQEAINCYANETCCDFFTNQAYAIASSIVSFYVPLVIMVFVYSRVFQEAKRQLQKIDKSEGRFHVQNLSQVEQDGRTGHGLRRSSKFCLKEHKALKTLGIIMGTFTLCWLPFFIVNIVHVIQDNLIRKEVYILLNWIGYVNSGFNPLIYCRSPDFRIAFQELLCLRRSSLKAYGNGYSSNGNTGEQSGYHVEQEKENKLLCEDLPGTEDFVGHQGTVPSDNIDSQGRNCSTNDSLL
Chain of Kappa-type opioid receptor (Homo sapiens) (P41145 whole entry): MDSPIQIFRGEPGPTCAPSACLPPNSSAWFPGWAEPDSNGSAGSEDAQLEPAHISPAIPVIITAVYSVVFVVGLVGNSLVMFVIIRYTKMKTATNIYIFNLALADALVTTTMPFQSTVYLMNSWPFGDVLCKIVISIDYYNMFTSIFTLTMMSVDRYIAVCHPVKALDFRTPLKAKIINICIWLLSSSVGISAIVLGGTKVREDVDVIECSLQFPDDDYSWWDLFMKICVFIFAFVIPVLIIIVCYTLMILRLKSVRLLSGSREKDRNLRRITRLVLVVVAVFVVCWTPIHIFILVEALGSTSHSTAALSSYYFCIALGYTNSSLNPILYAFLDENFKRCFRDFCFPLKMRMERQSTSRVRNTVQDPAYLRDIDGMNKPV
Chain of Endothelin receptor type B (Homo sapiens) (P24530 whole entry): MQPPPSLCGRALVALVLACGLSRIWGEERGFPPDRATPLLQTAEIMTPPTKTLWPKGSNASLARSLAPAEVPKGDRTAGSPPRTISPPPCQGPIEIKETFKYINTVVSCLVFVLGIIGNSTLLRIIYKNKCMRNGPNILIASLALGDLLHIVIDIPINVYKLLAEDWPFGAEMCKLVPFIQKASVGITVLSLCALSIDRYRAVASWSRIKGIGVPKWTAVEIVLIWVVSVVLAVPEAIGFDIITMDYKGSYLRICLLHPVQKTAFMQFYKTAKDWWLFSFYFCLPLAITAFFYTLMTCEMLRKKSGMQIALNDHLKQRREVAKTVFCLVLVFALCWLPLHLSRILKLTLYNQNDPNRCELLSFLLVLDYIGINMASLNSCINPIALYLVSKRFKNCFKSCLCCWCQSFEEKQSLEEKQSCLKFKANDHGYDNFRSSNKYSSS
Chain of Alpha-1D adrenergic receptor (Homo sapiens) (P25100 whole entry): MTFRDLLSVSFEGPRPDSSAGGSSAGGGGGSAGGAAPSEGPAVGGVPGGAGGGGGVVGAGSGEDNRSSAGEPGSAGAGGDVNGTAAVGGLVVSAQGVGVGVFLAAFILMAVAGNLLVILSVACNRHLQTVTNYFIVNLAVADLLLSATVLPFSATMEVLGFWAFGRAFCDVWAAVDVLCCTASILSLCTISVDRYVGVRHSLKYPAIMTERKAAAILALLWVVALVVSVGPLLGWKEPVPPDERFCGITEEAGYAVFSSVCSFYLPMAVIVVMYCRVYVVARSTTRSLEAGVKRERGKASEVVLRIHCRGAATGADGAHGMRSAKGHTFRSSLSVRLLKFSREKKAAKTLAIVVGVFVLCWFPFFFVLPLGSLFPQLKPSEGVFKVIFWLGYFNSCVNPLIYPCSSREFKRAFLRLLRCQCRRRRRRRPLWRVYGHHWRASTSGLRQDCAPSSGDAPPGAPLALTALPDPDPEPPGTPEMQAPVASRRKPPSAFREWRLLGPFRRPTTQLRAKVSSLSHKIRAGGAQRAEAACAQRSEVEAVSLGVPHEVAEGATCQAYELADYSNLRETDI
Chain of Alpha-2A adrenergic receptor (Homo sapiens) (P08913 whole entry): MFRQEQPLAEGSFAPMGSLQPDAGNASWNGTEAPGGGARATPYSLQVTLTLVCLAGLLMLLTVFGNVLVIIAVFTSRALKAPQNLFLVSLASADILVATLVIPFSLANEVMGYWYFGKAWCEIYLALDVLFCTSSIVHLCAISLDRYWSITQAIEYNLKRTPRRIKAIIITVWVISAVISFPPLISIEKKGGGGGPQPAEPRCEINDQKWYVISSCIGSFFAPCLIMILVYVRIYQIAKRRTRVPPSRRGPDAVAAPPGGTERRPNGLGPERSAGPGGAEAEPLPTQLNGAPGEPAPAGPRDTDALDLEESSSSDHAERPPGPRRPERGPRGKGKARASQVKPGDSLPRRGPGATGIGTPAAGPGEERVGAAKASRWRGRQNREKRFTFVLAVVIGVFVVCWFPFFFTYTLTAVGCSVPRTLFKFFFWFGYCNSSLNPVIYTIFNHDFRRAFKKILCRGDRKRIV
Chain of Sodium-dependent dopamine transporter (Homo sapiens) (Q01959 whole entry): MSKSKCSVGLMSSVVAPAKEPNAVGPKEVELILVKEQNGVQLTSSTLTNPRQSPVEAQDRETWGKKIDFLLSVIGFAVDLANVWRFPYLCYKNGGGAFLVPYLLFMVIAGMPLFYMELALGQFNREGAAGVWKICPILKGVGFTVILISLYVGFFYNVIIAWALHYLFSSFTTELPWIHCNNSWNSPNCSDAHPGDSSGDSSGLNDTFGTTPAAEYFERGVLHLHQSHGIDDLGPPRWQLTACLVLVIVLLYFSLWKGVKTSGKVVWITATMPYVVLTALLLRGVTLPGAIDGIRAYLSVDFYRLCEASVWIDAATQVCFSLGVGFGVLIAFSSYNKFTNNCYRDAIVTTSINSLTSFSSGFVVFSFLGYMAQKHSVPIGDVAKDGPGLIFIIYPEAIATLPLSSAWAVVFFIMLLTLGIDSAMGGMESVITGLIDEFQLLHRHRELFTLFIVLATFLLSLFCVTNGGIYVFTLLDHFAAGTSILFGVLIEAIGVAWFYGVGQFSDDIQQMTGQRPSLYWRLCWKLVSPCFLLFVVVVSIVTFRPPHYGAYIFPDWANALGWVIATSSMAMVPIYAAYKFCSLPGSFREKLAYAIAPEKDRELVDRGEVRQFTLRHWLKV
Chain of Adenosine receptor A1 (Homo sapiens) (P30542 whole entry): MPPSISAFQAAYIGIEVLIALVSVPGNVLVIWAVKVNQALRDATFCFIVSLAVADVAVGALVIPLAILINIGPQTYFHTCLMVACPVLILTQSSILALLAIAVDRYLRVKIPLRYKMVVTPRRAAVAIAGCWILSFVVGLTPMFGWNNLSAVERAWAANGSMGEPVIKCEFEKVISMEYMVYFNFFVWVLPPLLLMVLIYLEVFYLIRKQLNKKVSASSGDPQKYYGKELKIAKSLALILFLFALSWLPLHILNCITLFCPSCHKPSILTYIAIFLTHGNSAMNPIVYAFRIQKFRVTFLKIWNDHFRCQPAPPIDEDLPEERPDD

With `CCOC(=O)N1CCC(CN2CCC3(CC2)CN(C(=O)N(C)C)c2ncccc23)CC1.O=C(O)/C=C/C(=O)O` as the molecule, how does the inhibition [1] read?
Its inhibition is -1%.

And the inhibition [2]?
Its inhibition is -1%.

What about the inhibition [3] of the same molecule?
Its inhibition is 15%.

What about the inhibition (Rattus norvegicus [4]) of the same molecule?
The inhibition was 4%.

And the inhibition [5]?
Its inhibition is 2%.

What about the inhibition (Rattus norvegicus [6]) of the same molecule?
The inhibition was 4%.

And the inhibition (Rattus norvegicus [7])?
Its inhibition is 14%.

What about the inhibition [8] of the same molecule?
The inhibition was -5%.

And the Intrinsic activity [9]?
The Intrinsic activity was 5%.

What about the inhibition [10] of the same molecule?
The inhibition was 7%.

What about the bioavailability [11] of the same molecule?
Its bioavailability is 51.1%.

And the Activity [12]?
Its Activity is 11%.

And the inhibition [13]?
Its inhibition is 10%.

What about the Activity [14] of the same molecule?
The Activity was 10%.

And the clearance [15]?
Its clearance is 28.4 mL/min/kg.

What about the inhibition [16] of the same molecule?
Its inhibition is 11%.

What about the inhibition [17] of the same molecule?
The inhibition was 3%.

What about the Kp [18] of the same molecule?
The Kp was 0.7.

And the EC50 [19]?
Its EC50 is 47 nM.

What about the Cmax [20] of the same molecule?
Its Cmax is 207 ng/mL.

And the inhibition (Oryctolagus cuniculus)?
Its inhibition is 3%.

What about the Vd [21] of the same molecule?
Its Vd is 1.8 L/kg.

And the inhibition [22]?
The inhibition was -2%.

And the inhibition [23]?
The inhibition was -2%.

What about the inhibition [24] of the same molecule?
Its inhibition is 4%.

And the half-life [25]?
The half-life was 286 min.

And the bioavailability [26]?
Its bioavailability is 39.8%.

What about the inhibition [27] of the same molecule?
The inhibition was -7%.

And the bioavailability [28]?
The bioavailability was 49.3%.

Reference: ChEMBL document CHEMBL3351422, “Discovery of N-substituted 7-azaindoline derivatives as potent, orally available M1 and M4 muscarinic acetylcholine receptors selective agonists” (Bioorg Med Chem Lett, 2014)
